Experiment [1] concerns the target T1, dopamine D2 receptors (Homo sapiens (Human), UniProt P14416). Nature of the experiment: G protein Gαi1-γ9 dissociation BRET, dopamine D2 receptor functional activity. The experiment is classed as cell-based. Conditions: for Emax: relative to the endogenous ligand dopamine, read-out: Gai1 BRET Emax % ± SEM. How it is done: To examine downstream G protein signaling mediated by dopamine D2 receptors, 6 cm dish was used for transfection with 1μg of dopamine D2 receptors, 1μg of Gαi1 fused to seaweed luciferase (Gαi1-Rluc), 1 μg of Gβ3, 1 μg of Gγ9 fused to green fluorescent protein (Gγ9-GFP) and 16 μL of transfection reagent PEI. […] On the third day, the drugs were added for test.
(§1) To examine downstream G-protein signaling pathway mediated by dopamine D2 receptors, on the first day, 6 cm dish was used for transfection with 1μg of dopamine D2 receptors, 1μg of Gαi1 containing C-terminal seaweed luciferase (GGαi1-Rluc), 1 μg of […], 1 μg of Gγ9 containing C-terminal green fluorescent protein (Gγ9-GFP) and 16 μL of PEI. At the same time, in order to examine the downstream f3-arrestin2 signaling pathway mediated by dopamine D2 receptors, on the first day, 6 cm dish was used for transfection with 500 μg of dopamine D2 receptors containing C-terminal seaweed luciferase (D2-Rluc), 500 μg of G protein-coupled receptor kinase 2 (GRK2), 2500 μg of […] containing N-terminal green fluorescent protein (GFP2-ARRB2) and 14 μL of PEI. The next day, the overgrown cells were digested and plated a 96-well plate at the amount of cells contained in a 6 cm culture dish with overgrown cells, and 100 μL of culture medium was added to each well. On the third day, the drugs were added for test. The 96-well plate was taken out from the cell culture room to remove the culture medium, 40 μL of the substrate coelenterazine 400a (final concentration of 5 μM) was added to each well, and then 20 μL of different drugs were added in turn from left to right to ensure that the final concentration of the drugs decreased gradually from bottom to top, and each treatment was repeated twice. Finally, the prepared samples were loaded on machine for test. The machine reading value reflected the intracellular β-arrestin2 on the membrane and the dissociation of G protein trimer. The former indicated the degree of activation of the β-arrestin2 signaling pathway downstream of the dopamine D2 receptors, and the latter indicated the degree of activation of the G protein signaling pathway downstream of the dopamine D2 receptors.
Background: Bioluminescence resonance energy transfer reports proximity on the nanometre scale.

Experiment [2] addresses T1, dopamine D2 receptors. Nature of the experiment: β-arrestin2 recruitment BRET, dopamine D2 receptor functional activity. The format is cell-based. Conditions: for Emax: relative to the endogenous ligand dopamine, read-out: β-arrestin2 BRET Emax % ± SEM. How it is done:
To examine the downstream f3-arrestin2 signaling pathway mediated by dopamine D2 receptors, 6 cm dish was used for transfection with 500 […] of dopamine D2 receptors fused to seaweed luciferase (D2-Rluc), 500 μg of G protein-coupled receptor kinase 2 (GRK2), 2500 μg of β-arrestin2 fused to green fluorescent protein (GFP2-ARRB2) and 14 μL of transfection reagent PEI. The next day, the overgrown cells were digested and plated a 96-well plate at the amount of cells contained in a 6 cm culture dish with overgrown cells, and 100 μL of culture medium was added to each well. On the third day, the drugs were added for test.
as §1
For orientation: Activated receptors often draw arrestin, which recruitment assays turn into a signal.

Where [3] appears, read: antagonistic activity, single determination, read-out: Gai1 BRET EC50 (antagonistic activity).
Setting [4] is: HEK-293T, I-1 to 19 n=3, I-20 to 27 single determination, read-out: Gai1 BRET EC50.
Setting [5] is: HEK-293T, I-1 to 19 n=3, I-20 to 27 single determination, read-out: β-arrestin2 BRET EC50.

T1 sequence (P14416 whole entry, the tested form may be a part): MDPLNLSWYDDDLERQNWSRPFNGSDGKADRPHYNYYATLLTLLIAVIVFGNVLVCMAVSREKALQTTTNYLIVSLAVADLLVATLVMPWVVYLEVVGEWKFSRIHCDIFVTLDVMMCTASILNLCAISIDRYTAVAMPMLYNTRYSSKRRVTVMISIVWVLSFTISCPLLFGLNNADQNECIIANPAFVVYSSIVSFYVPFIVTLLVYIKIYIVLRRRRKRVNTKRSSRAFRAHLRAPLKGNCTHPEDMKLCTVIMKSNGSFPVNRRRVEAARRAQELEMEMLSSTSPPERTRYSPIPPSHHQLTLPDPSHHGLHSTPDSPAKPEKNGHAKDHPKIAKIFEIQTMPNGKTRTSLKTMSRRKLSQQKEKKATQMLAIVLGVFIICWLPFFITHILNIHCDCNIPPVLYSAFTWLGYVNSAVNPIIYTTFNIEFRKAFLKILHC

`Cn1cc2c3c(cccc31)N1CCN(CCCC(O)c3ccc(F)cc3)CC1C2` (stereo not drawn) [Compound I-27, 1-(4-fluorobenzene)-4-(4-methyl-4,6,6a,7,9,10-hexahydro-8H-pyrazino[1,2-a]pyrrolo[4,3,2-de]quinolin-8-yl)-1-butanol]: the EC50 – broadly, the concentration giving half of the maximal effect – in experiment [1] (setting [3]) was determined as 1200 nM; in experiment [2] (antagonistic activity, single determination, read-out: β-arrestin2 BRET EC50 (antagonistic activity)), 1540 nM.
`O=C(CCCN1CCN2c3cccc4[nH]cc(c34)CC2C1)c1ccc(F)cc1` (stereo not drawn) [Compound I-24, 1-(4-fluorobenzene)-4-(4,6,6a,7,9,10-hexahydro-8H-pyrazino[1,2-a]pyrrolo[4,3,2-de]quinolin-8-yl)-1-butanone]: the EC50 in experiment [1] (setting [4]) came out at 11.4 nM; in experiment [2] (setting [5]), 10.4 nM. Also, the maximum response (Emax) – broadly, the size of the effect at its maximum, as opposed to the concentration needed – in experiment [1] was determined as 38%; in experiment [2], 26%.
`Cn1cc2c3c(cccc31)N1CCN(CCCC(=O)c3ccc(F)cc3)CC1C2` (stereo not drawn) [Compound I-26, 1-(4-fluorobenzene)-4-(4-methyl-4,6,6a,7,9,10-hexahydro-8H-pyrazino[1,2-a]pyrrolo[4,3,2-de]quinolin-8-yl)-1-butanone]: the 50% effective concentration (EC50) in experiment [1] (setting [3]) was 7620 nM. In addition, the “β-arrestin2 BRET EC50” value in experiment [2] (HEK-293T, I-1 to 19 n=3, I-20 to 27 single determination) is “Inactive”.
Turning to `c1cc2c3c(c[nH]c3c1)CC1CN(CCCCOc3ccc4scnc4c3)CCN21` (stereo not drawn) [Compound I-3], the 50% effective concentration (EC50) amounted to 43.6 nM in experiment [1] (setting [4]) and 64.6 nM in experiment [2] (setting [5]). The figures for the maximum response (Emax) in experiment [1] and in experiment [2] were 92% and 93%, respectively.
On the same counts, the results for `O=c1ccc2ccc(OC/C=C/CN3CCN4c5cccc6[nH]cc(c56)CC4C3)cc2[nH]1` (stereo not drawn) [Compound I-21] are 7.71 nM, 61.9 nM, 77% and 90%.
As to `CN(C)C(=O)N[C@H]1CC[C@H](CN2CCN3c4cccc5[nH]cc(c45)CC3C2)CC1` (stereo partly drawn) [Compound I-16], the EC50 in experiment [1] (setting [4]) worked out at 58.9 nM; in experiment [2] (setting [5]), 40.7 nM. Also, the maximum response (Emax) is 84% in experiment [1] and 90% in experiment [2].
Turning to `O=C1CCc2ccc(OC/C=C/CN3CCN4c5cccc6[nH]cc(c56)CC4C3)cc2N1` (stereo not drawn) [Compound I-20], the EC50 in experiment [1] (setting [4]) is 10.2 nM; in experiment [2] (setting [5]), 98.2 nM. Moreover, the Emax in experiment [1] amounted to 74%; in experiment [2], 88%.
With `O=C(N[C@H]1CC[C@H](CCN2CCN3c4cccc5[nH]cc(c45)CC3C2)CC1)N1CCCC1` (stereo partly drawn) [Compound I-11, N-(4-(2-(4,6,6a,7,9,10-hexahydro-8H-pyrazino[1,2-a]pyrrolo[4,3,2-de]quinolin-8-yl)ethyl)trans-cyclohexyl)tetrahydropyrrole-l-carboxamide], the EC50 in experiment [1] (setting [4]) worked out at 9.33 nM; in experiment [2] (setting [5]), 11.2 nM. Further, the maximal effect (Emax) turned out to be 91% in experiment [1] and 87% in experiment [2].
On to `OC(CCCN1CCN2c3cccc4[nH]cc(c34)CC2C1)c1ccc(F)cc1` (stereo not drawn) [Compound I-25, 1-(4-fluorobenzene)-4-(4,6,6a,7,9,10-hexahydro-8H-pyrazino[1,2-a]pyrrolo[4,3,2-de]quinolin-8-yl)-1-butanol], for which the concentration for a half-maximal effect (EC50) in experiment [1] (setting [4]) was determined as 7.48 nM; in experiment [2] (setting [5]) it was 9.6 nM. For the same molecule, the results for the maximum response (Emax) in experiment [1] and in experiment [2] were 29% and 30%, respectively.
On the same counts, the results for `c1cc2c3c(c[nH]c3c1)CC1CN(CCCOc3ccc4c(c3)OCO4)CCN21` (stereo not drawn) [Compound I-9, 8-(3-(benzo[d][1,3]dioxo1-5-yloxy)propyl)-6,6a,7,8,9,10-hexahydro-4H-pyrazino[1,2-a]pyrrolo[4,3,2-de]quinoline] are 166 nM, 148 nM, 92% and 96%.
